This data set is described as follows: Absorption rate of carbon-14 Compound A from different vehicles after SQ or IM injection (Example 2, Table I). The format is in vivo, rats. The note with it: for Relative Percent Absorption: compared to aqueous buffer over 6 hours. Here is the method: A series of experiments was carried out to determine the absorption rate of a compound which are useful in the composition of this invention as compared to other compositions which are not included within the scope of the claims of the invention. In each experiment 56 rats were used. Two groups of 27 rats are required for the test formulations and the two remaining rats are used to obtain blank plasma samples. […] Each composition is prepared by dissolving 2.7 milligrams of the compound in 10 milliliters of the solvent. This represents approximately 5 microcuries of carbon 14 and 41 micrograms of dl-9α,11α,15α-trihydroxy-16-phenoxy-17,18,19,20-tetranorprosta-4,5,13-trans-trienoic acid (Compound A). Blood samples from each of three rats from each group are obtained by […] at the following time points after injection: 15 minutes, 30 minutes, 45 minutes, 60 minutes, 2 hours, 3 hours, 4 hours, 5 hours and 6 hours. The two untreated rats are sampled to obtain blank plasma sample.
*Compared to aqueous buffer over 6 hours.

Where [1] appears, read: vehicle 90% Glycerin H2O, SQ, .15 ml, 5 μCi.
Where [2] appears, read: vehicle Aq. Buffer, IM, .15 ml, 5 μCi.
[3] abbreviates: vehicle Aq. Buffer, SQ, .15 ml, 5 μCi.
Setting [4] is: vehicle Glycerin, SQ, .15 ml, 5 μCi.
Where [5] appears, read: vehicle PEG 400, IM, .15 ml, 5 μCi.
Where [6] appears, read: vehicle PEG 400, SQ, .15 ml, 5 μCi.
The mark [7] stands for this setting: vehicle PEG 400, SQ, .30 ml, 10 μCi.

Where “and” joins values, the source holds several entries; their conditions need not be identical. Equal entries are not always repeated.

Consider one compound from patent US4389414A, “Prostaglandin compositions” (Syntex (U.S.A.) Inc., priority 1981, dated 1983).

Take `O=C(O)CCC=C=CC[C@@H]1[C@@H](/C=C/[C@@H](O)COc2ccccc2)[C@H](O)C[C@@H]1O` (relative stereo) [Compound A, dl-9α,11α,15α-trihydroxy-16-phenoxy-17,18,19,20-tetranorprosta-4,5,13-trans-trienoic acid]: the “Absorption Rate Constant Ka” value came out at 6.5 hr^1 under setting [1]; 10.14 hr^1 under setting [2]; 10.14 hr^1 under setting [3]; 5.0 hr^1 under setting [4]; 3.7 hr^1 under setting [5]; 3.7 hr^1 under setting [6]. Further, the “Absorption Rate Constant Ka” value under setting [7] turned out to be 3.7 hr^1. Moreover, the “Relative Percent Absorption” value by setting is: under setting [1], 51.5%; under setting [2], 100%; under setting [3], 60.9%; under setting [4], 50.4%; under setting [5], 35.5%; under setting [6], 27.6% and 31.4%. Further, the “Relative Percent Absorption” value under setting [7] is 26.2%.
